The text below walks through data of patent US10087191B2, “Piperidine derivative and preparation method and pharmaceutical use thereof” (Jiangsu Hengrui Medicine Co., Ltd., priority 2015, dated 2018).

The target in data set [1] is estrogen receptor (ER) (Homo sapiens (Human), UniProt P03372). The experiment in a line: Inhibition of the binding of estrogen (E) to estrogen receptor (ER), MCF-7/ERE-luciferase reporter cells. The conditions noted are these: MCF-7/ERE-luciferase cells, 0.1 nM estradiol, 24 hours; read-out: IC50 value of inhibition effect on the binding of E to ER. It is filed as cell-based.

Data set [2] in a line: Pharmacokinetics assay in BALB/C nude mice after intragastrical administration. Format: in vivo. The conditions noted are these: female, mouse, plasma, po, 3 mg/kg; for AUC: read-out: Area Under Curve AUC; for CL/F: read-out: Clearance CL/F (converted); for half-life: read-out: Half-Life t½ (converted); for MRT: read-out: Mean Residence Time MRT; for Cmax: read-out: Plasma Conc. Cmax. As for the experimental part:
BALB/C nude mice were used as test animals. The drug concentration in plasma at different time points was determined by LC/MS/MS after intragastrical administration of the compounds of Examples 10, 14, 20, 21, 57, 68, 71, 73, 74, 76 and 89 to BALB/C nude mice. The pharmacokinetic behavior of the compounds of the present invention was studied and evaluated in BALB/C nude mice.
Ninety-nine (99) female BALB/C nude mice were equally divided into 11 groups, which were purchased from SINO-BRITSH SIPPR/BK LAB. ANIMAL LTD., CO, with Certificate No.: SCXK (Shanghai) 2008-0016.
The appropriate amount of each test compound was weighed, and successively added with 9% PEG400+0.5% tween 80+0.5% PVP+90% aqueous solution of 0.5% CMC.
After an overnight fast, 99 female BALB/C nude mice were equally divided into 11 groups, and administered the test compounds intragastrically at an administration volume of 0.2 mL/10 g.
Blood (0.1 mL) was sampled (3 mice at each time point) at 0.5, 1.0, 2.0, 4.0, 6.0, 8.0, 11.0 and 24.0 hours after administration. The samples were stored in heparinized test tubes, and centrifuged for 10 minutes at 3,500 rpm to separate the blood plasma. The plasma samples were stored at −20° C. The plasma concentration of the test compounds in BALB/C nude mice after intragastrical administration was determined by LC/MS/MS.
Pharmacokinetic parameters of the compounds of Examples 10, 14, 20, 21, 57, 68, 71, 73, 74, 76 and 89 of the present invention are shown below.

Data set [3] addresses ERα (Homo sapiens (Human), UniProt P03372). The data set can be described thus: Degradation effect on ERα in MCF-7 cells (ERα Duoset ELISA). Format: cell-based. The conditions noted are these: MCF-7 cells; read-out: IC50 value of the degradation effect on ERα. On the technique in general: In an ELISA, binding on a coated surface is turned into a signal by an enzyme label.
The subject of data set [4] is MCF7 cells. The data set can be described thus: Inhibition of the proliferation of MCF7 cells (Cell Titer-Glo). It is filed as cell-based. The conditions noted are these: Homo sapiens, MCF-7 cells, 72 hours, read-out: IC50 value of inhibition effect on the proliferation of MCF7 cells. A digest of the protocol: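 Viability by Cell Titer-Glo luminescence; IC50 from signal versus log concentration.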
For orientation: In ATP-based viability assays light output follows the ATP content of the culture.

Chain of ERα (P03372 whole entry): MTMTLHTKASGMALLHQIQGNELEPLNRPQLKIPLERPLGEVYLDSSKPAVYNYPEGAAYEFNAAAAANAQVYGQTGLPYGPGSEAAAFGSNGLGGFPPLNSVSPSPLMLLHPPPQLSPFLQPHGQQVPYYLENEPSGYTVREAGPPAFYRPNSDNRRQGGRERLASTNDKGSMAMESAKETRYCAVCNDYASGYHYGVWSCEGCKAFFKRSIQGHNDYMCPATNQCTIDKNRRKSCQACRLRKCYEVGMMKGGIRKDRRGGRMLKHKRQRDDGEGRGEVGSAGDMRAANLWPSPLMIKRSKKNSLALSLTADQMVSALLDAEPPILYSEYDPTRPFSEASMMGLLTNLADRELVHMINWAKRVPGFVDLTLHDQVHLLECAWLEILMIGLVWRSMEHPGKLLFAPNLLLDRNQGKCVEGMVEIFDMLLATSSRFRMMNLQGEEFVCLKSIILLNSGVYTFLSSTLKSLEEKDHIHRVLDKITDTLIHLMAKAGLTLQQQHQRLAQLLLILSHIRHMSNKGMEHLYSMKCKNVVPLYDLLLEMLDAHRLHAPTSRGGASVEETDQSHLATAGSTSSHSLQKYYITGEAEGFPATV
Chain of estrogen receptor (ER) (P03372 whole entry): as above

For `C[C@@H]1Cc2cc(-c3cnn(C(F)F)c3)ccc2[C@@H](c2c(F)cc(/C=C/C(=O)O)cc2F)N1CC(C)(C)F` [Example 14, (E)-3-(4-((1S,3R)-6-(1-(difluoromethyl)-1H-pyrazol-4-yl)-2-(2-fluoro-2-methylpropyl)-3-methyl-1,2,3,4-tetrahydroisoquinolin-1-yl)-3,5-difluorophenyl)acrylic acid], the IC50 in data set [1] came to 0.29 nM. Also, in data set [2], the exposure (AUC) – broadly, the area under the concentration-time curve, a measure of exposure – worked out at 32700 ng·h/mL; the CL/F is 25.5 mL/min/kg; the half-life (usually the time in which the quantity being followed falls by half) is 4.74 h; the MRT (usually the average time that molecules of a dose stay in the body) was found to be 5.93 h. The Cmax (as a rule, the maximum level reached in the sampled fluid or tissue) in data set [2] amounted to 6750 ng/mL. Also, in data set [3], the DC50 was found to be 0.64 nM. Moreover, in data set [4], the IC50 was 0.06 nM.
Take `C[C@@H]1Cc2cc(-c3cnn(C)c3)ccc2[C@@H](c2c(F)cc(/C=C/C(=O)O)cc2F)N1CC(C)(C)F` [Example 57, (E)-3-(3,5-difluoro-4-((1S,3R)-2-(2-fluoro-2-methylpropyl)-3-methyl-6-(1-methyl-1H-pyrazol-4-yl)-1,2,3,4-tetrahydroisoquinolin-1-yl)phenyl)acrylic acid]: the IC50 in data set [1] is 0.33 nM. Also, in data set [2], the AUC came to 15100 ng·h/mL, the CL/F was 55.2 mL/min/kg, the half-life is 2.78 h and the MRT was 3.23 h. In data set [2], the Cmax came to 5070 ng/mL. The DC50 in data set [3] is 0.1 nM. Further, the IC50 in data set [4] stood at 0.01 nM.
Consider `C[C@@H]1Cc2c(oc3ccccc23)[C@@H](c2c(F)cc(/C=C/C(=O)O)cc2F)N1CC(C)(C)F` [Example 68, (E)-3-(3,5-difluoro-4-((1R,3R)-2-(2-fluoro-2-methylpropyl)-3-methyl-1,2,3,4-tetrahydrobenzofuro[2,3-c]pyridin-1-yl)phenyl)acrylic acid], for which, in data set [1], the IC50 stood at 0.31 nM. Further, in data set [2], the AUC worked out at 13200 ng·h/mL, the CL/F was 105 mL/min/kg, the half-life is 2.32 h and the MRT was 3.7 h. Besides, in data set [2], the Cmax turned out to be 3420 ng/mL. Moreover, the DC50 in data set [3] was 0.11 nM. Also, the IC50 in data set [4] was found to be 0.04 nM.
Take `C[C@@H]1Cc2cc3c(cc2[C@@H](c2c(F)cc(/C=C/C(=O)O)cc2F)N1CC(C)(C)F)OCO3` [Example 71, (E)-3-(3,5-difluoro-4-((5S,7R)-6-(2-fluoro-2-methylpropyl)-7-methyl-5,6,7,8-tetrahydro-[1,3]dioxolo[4,5-g]isoquinolin-5-yl)phenyl)acrylic acid]: the IC50 in data set [1] was 0.74 nM. For the same molecule, in data set [2], the area under the curve (AUC) came out at 8810 ng·h/mL, the CL/F was 158 mL/min/kg, the half-life is 1.59 h and the MRT turned out to be 2.62 h. In addition, the Cmax in data set [2] came out at 4130 ng/mL. Moreover, in data set [3], the DC50 worked out at 0.06 nM. In addition, in data set [4], the IC50 was 0.12 nM.
Take `C[C@@H]1Cc2c(oc3cccc(F)c23)[C@@H](c2c(F)cc(/C=C/C(=O)O)cc2F)N1CC(C)(C)F` [Example 74, (E)-3-(3,5-difluoro-4-((1R,3R)-5-fluoro-2-(2-fluoro-2-methylpropyl)-3-methyl-1,2,3,4-tetrahydrobenzofuro[2,3-c]pyridin-1-yl)phenyl)acrylic acid]: in data set [1], the IC50 stood at 0.21 nM. Moreover, in data set [2], the AUC was found to be 5850 ng·h/mL, the CL/F was 142 mL/min/kg, the half-life is 3.16 h and the MRT is 2.41 h. In addition, the Cmax in data set [2] came to 2530 ng/mL. Besides, in data set [3], the DC50 amounted to 1.35 nM. For the same molecule, the IC50 in data set [4] came out at 0.09 nM.
Regarding `CC1Cc2c(oc3ccc(-c4cnn(C)c4)cc23)C(c2c(F)cc(/C=C/C(=O)O)cc2F)N1CC(C)(C)F` [Example 89, (E)-3-(3,5-difluoro-4-((1R,3R/1S,3S)-2-(2-fluoro-2-methylpropyl)-3-methyl-6-(1-methyl-1H-pyrazol-4-yl)-1,2,3,4-tetrahydrobenzofuro[2,3-c]pyridin-1-yl)phenyl)acrylic acid], the IC50 in data set [1] stood at 0.21 nM. Further, in data set [2], the AUC was found to be 7710 ng·h/mL, the CL/F was 108 mL/min/kg, the half-life was 3.97 h and the MRT was 5.69 h. Also, the Cmax in data set [2] was found to be 1270 ng/mL. In addition, in data set [3], the DC50 came out at 0.31 nM. Moreover, in data set [4], the IC50 amounted to 0.08 nM.
